# Results published in patent publication US20260265203A1, “CRYSTAL FORMS OF NITROGEN-CONTAINING SPIRO COMPOUND, PREPARATION METHOD THEREFOR AND USE THEREOF” (WUHAN CREATERNA SCIENCE AND TECHNOLOGY CO., LTD., priority 2023, published 2026).
# Read-outs that look alike come from different tables or passages of the source.
# Tests used:
# [1] = test system: alternative pathway; assay: Rabbit erythrocyte hemolysis assay (alternative pathway inhibition); type: cell-based, human; conditions: rabbit erythrocytes, NHP or NHS (matrix of the value not stated)
# Excerpt: Normal Human Serum (NHS) (collected from healthy individuals), Normal Human Plasma (NHP) (Shanghai Yuduo), 96-well enzyme-linked immunosorbent assay (ELISA) plates (Jet Biofil), Japanese big-ear white rabbits (Wuhan WQJX Biotechnology), Alsever's solution (Procell), centrifuge (Thermo, PICO17), constant temperature shaker (Shanghai Fuma), decolorization shaker (Beijing Liuyi Biotechnology), cell counter (Invitrogen, Counter Countess II). GVB°, EGTA, MgCl2, NaOH, microplate reader, microplate thermostatic shaker, pipettes, etc., were the same as Experiment 1.
# 48% NHP: 100% NHP was diluted to a concentration of 48% with buffer.
# 26.4% NPS: 100% NHS was diluted to a concentration of 26.4% with buffer. […]
# In a 96-well microplate, for the experimental group 50 μL of 48% NHP or 26.4% NHS and 50 μL of compound solution were added; for the positive control group 50 μL of 48% NHP or 26.4% NHS and 50 μL of buffer containing 0.2% DMSO were added; for the blank control group 50 μL of 48% inactivated NHP or 26.4% inactivated NHS and 50 μL of buffer containing 0.2% DMSO were added; for the H2O group 100 μL of double-distilled water was added. […] The plate was centrifuged at 2000 g (3380 rpm) for 5 minutes, and 100 μL of supernatant was transferred to a new 96-well microplate, after which absorbance was measured at 415 nm. […]
# [2] = Heating experiment of crystal form II; type: physicochemical
# Excerpt: The resulting solids were subsequently characterized by XRPD, TGA, DSC, and ^1H NMR testings.
# [3] = Solubility experiments in biosolvents and water; type: physicochemical
# Method: (§1) The analysis and detection of samples were conducted using Shimadzu instruments. Both stability and solubility experiments were measured using the following methods.
# The samples were fully stirred in SGF, FaSSIF, FeSSIF, and water for 0.5 hours, 2 hours, and 24 hours before being withdrawn. Their solubility was determined using HPLC, and the solid form in the suspensions was analyzed by XRPD for its crystal form.
# [4] = Stability of crystal form I in DMSO under high-temperature conditions (LCMS purity); type: physicochemical
# Method: The LCMS curve was acquired using a Shimadzu instrument.
# The suspension was stirred at 50° C. for 24 hours and 48 hours, respectively. The solid and filtrate were then analyzed by LCMS.
# [5] = Wet grinding crystal transformation experiment; type: physicochemical; conditions: manual grinding with water or ethanol for 10 minutes
# Method: 0.04 mL of water or ethanol was added, and manual grinding was performed for 2 min, 5 min, and 10 min, respectively. After each grinding period, XRPD was measured. If the solvent completely evaporates during the grinding process, an additional 0.04 mL of water or ethanol should be added to the mortar each time.
# [6] = Tablet compression experiment; type: physicochemical; conditions: compressed at 40 MPa
# [7] = Solid-state stability experiment under open conditions (HPLC purity, XRPD); type: physicochemical
# Method: as §1
# The purity was determined by HPLC.
# [8] = Water activity experiment (crystal form by XRPD); type: physicochemical
# Method: Organic solvent and water were mixed at molar ratios of 0.001:0.999, 0.2:0.8, 0.5:0.5, 0.8:0.2, and 0.999:0.001. […] The mixtures were stirred at 25° C. and 50° C. for 30 minutes, respectively, followed by filtration, and the filtrate was collected. […] The results were analyzed after stirring for 5 days and 11 days, respectively.
# [9] = Hygroscopicity experiment (DVS); type: physicochemical
# Method: The sample was analyzed using Intrinsic DVS ([…] UK). The test sample, approximately 20~30 mg, was placed into the sample basket and suspended in the measurement chamber. The temperature in the test chamber was maintained at 25±1° C., while the relative humidity is increased from 0% to 90% and then decreased back to 0% at a rate of 10% per hour. Mass data was recorded every 20 seconds. Each gradient pause lasts 60 minutes.
# No change in crystal form was observed before and after the DVS measurement.
# [10] = Determination of stability in biosolvents (HPLC purity); type: physicochemical
# Method: as §1
# After thorough stirring for 0.5 hours, 2 hours, and 24 hours, the mixed solutions were diluted to 10 mL, and their purity was determined using HPLC. […] Main impurities are indicated by the boxes in FIGS. 26 to 29.
# [11] = simulated gastric fluid, thermodynamic from solid, SGF
# [12] = thermodynamic from solid, FaSSIF
# [13] = thermodynamic from solid, FeSSIF
# [14] = thermodynamic from solid, Water
# [15] = 25° C., DMSO-H2O, aw 0.0003-0.999
# [16] = 50° C., DMSO-H2O, aw 0.0003-0.999
smiles,measurement,setting,value
"NCc1cccc(-c2cc(COc3ccccc3CC(=O)O)cc(N3CCC4(CC3)CC4)c2)c1 [Compound of formula A, 2-(2-((3′-(aminomethyl)-5-(6-azaspiro[2.5]octan-6-yl)-[1,1′-biphenyl]-3-yl)methoxy)phenyl)acetic Acid]",IC50,[1],41 nM
NCc1cccc(-c2cc(COc3ccccc3CC(=O)O)cc(N3CCC4(CC3)CC4)c2)c1 [crystal form II],Crystal form (XRPD) after heating,[2]; heated to 140° C.,no change in the crystal form
same,Crystal form (XRPD) after heating,[2]; heated to 200° C.,crystal form I
NCc1cccc(-c2cc(COc3ccccc3CC(=O)O)cc(N3CCC4(CC3)CC4)c2)c1 [crystal form I],solubility,"[3]; Water, 0.5 h",LOQ
same,Crystal form (XRPD) of suspended solid,"[3]; after stirring for 24 hours in FaSSIF, FeSSIF, and water",remained unchanged
same,solubility at 0.5 h,"[3]; simulated gastric fluid, thermodynamic from solid, SGF, 0.5 h",> 5000 µg/mL
same,solubility at 2 h,[3]; [11],> 5000 µg/mL
same,solubility at 24 h,[3]; [11],> 5000 µg/mL
same,solubility,"[3]; simulated gastric fluid, thermodynamic from solid, SGF, read-out: solubility in SGF",> 5000 µg/mL
same,solubility at 0.5 h,"[3]; thermodynamic from solid, FaSSIF, 0.5 h",54 µg/mL
same,solubility at 2 h,[3]; [12],66 µg/mL
same,solubility at 24 h,[3]; [12],75 µg/mL
same,solubility,"[3]; thermodynamic from solid, FaSSIF, FeSSIF, and water, read-out: solubility in FaSSIF, FeSSIF, and water",< 730 µg/mL
same,solubility at 0.5 h,"[3]; thermodynamic from solid, FeSSIF, 0.5 h",630 µg/mL
same,solubility at 2 h,[3]; [13],700 µg/mL
same,solubility at 24 h,[3]; [13],730 µg/mL
same,solubility at 2 h,[3]; [14],0.2 µg/mL
same,solubility at 24 h,[3]; [14],0.58 µg/mL
same,Purity by LCMS (254 nm),[4]; crystal form I before stirring,99.06%
same,Purity by LCMS (254 nm),"[4]; stirred in DMSO at 50° C. for 24 hours, filtrate",98.71%
same,Purity by LCMS (254 nm),"[4]; stirred in DMSO at 50° C. for 24 hours, solid",99.48%
same,Purity by LCMS (254 nm),"[4]; stirred in DMSO at 50° C. for 48 hours, filtrate",97.14%
same,Purity by LCMS (254 nm),"[4]; stirred in DMSO at 50° C. for 48 hours, solid",98.92%
same,Crystal form (XRPD) after wet grinding,[5],remained unchanged
same,Crystal form (XRPD) after tablet compression,[6],remained unchanged
same,HPLC main peak purity,[7]; 0 days (initial),99.33%
same,HPLC main peak purity,"[7]; open, 25° C./60% RH, 3 days",99.34%
same,HPLC main peak purity,"[7]; open, 25° C./60% RH, 7 days",98.95%
same,HPLC main peak purity,"[7]; open, 25° C./60% RH, 14 days",99.43%
same,HPLC main peak purity,"[7]; open, 25° C./90%(±5%) RH, 3 days",99.18%
same,HPLC main peak purity,"[7]; open, 25° C./90%(±5%) RH, 7 days",98.96%
same,HPLC main peak purity,"[7]; open, 25° C./90%(±5%) RH, 14 days",99.52%
same,HPLC main peak purity,"[7]; open, 40° C./75% RH, 3 days",99.30%
same,HPLC main peak purity,"[7]; open, 40° C./75% RH, 7 days",99.00%
same,HPLC main peak purity,"[7]; open, 40° C./75% RH, 14 days",99.48%
same,Crystal form (XRPD) after storage,"[7]; open, 60° C., 25° C./60% RH, 40° C./75% RH, 25° C./90(±5)% RH, 14 days",remained unchanged
same,HPLC main peak purity,"[7]; open, 60° C., 3 days",99.36%
same,HPLC main peak purity,"[7]; open, 60° C., 7 days",98.92%
same,HPLC main peak purity,"[7]; open, 60° C., 14 days",99.44%
same,Result (5 days): solid form,"[8]; 25° C., ACN-H2O, aw 0.90-1.00",Crystal form I
same,Result (11 days): solid form,"[8]; 25° C., ACN-H2O, aw 0.90-1.00",Crystal
same,Result (5 days): solid form,[8]; [15],Crystal form I
same,Result (11 days): solid form,[8]; [15],Crystal
same,Result (5 days): solid form,"[8]; 25° C., IPA-H2O, aw 0.003-0.99",Crystal form I
same,Result (11 days): solid form,"[8]; 25° C., IPA-H2O, aw 0.003-0.99",Crystal
same,Result (5 days): solid form,"[8]; 50° C., ACN-H2O, aw 0.01-1.00",Crystal form I
same,Result (11 days): solid form,"[8]; 50° C., ACN-H2O, aw 0.01-1.00",Crystal
same,Result (5 days): solid form,[8]; [16],Crystal form I
same,Result (11 days): solid form,[8]; [16],Crystal
same,Result (5 days): solid form,"[8]; 50° C., IPA-H2O, aw 0.003-0.99",Crystal form I
same,Result (11 days): solid form,"[8]; 50° C., IPA-H2O, aw 0.003-0.99",Crystal
same,Crystal form (XRPD) before and after the DVS measurement,[9],No change
same,weight gain (DVS),"[9]; 0-80% RH, 25° C.",0.55%
same,hygroscopicity,[9]; DVS,slight hygroscopicity
same,HPLC main peak purity,[10]; 0 h,99.33%
same,HPLC main peak purity,"[10]; FaSSIF, 0.5 h",98.97%
same,HPLC main peak purity,"[10]; FaSSIF, 2 h",98.91%
same,HPLC main peak purity,"[10]; FaSSIF, 24 h",98.86%
same,HPLC main peak purity,"[10]; FeSSIF, 0.5 h",99.50%
same,HPLC main peak purity,"[10]; FeSSIF, 2 h",99.34%
same,HPLC main peak purity,"[10]; FeSSIF, 24 h",98.04%
same,HPLC main peak purity,"[10]; FeSSIF, starting value of the decline as stated in the text",99.56%
same,HPLC main peak purity,"[10]; SGF, 0.5 h",99.13%
same,HPLC main peak purity,"[10]; SGF, 2 h",99.10%
same,HPLC main peak purity,"[10]; SGF, 24 h",99.08%
same,HPLC main peak purity,"[10]; Water, 0.5 h",99.06%
same,HPLC main peak purity,"[10]; Water, 2 h",98.79%
same,HPLC main peak purity,"[10]; Water, 24 h",98.77. %
